The nature of series [1]: BPR: parent drug in brain and plasma of rats. It counts as in vivo. Conditions: rat, % change vs. non-deuterated material. How it is done: (§1) The key PK parameters (presented as a % change vs. non-deuterated materials) are presented in Table 3 to include half-life (T1/2), area under the curve (AUC), bioavailability (F) and blood-to-plasma ration (BPR). Pharmacokinetics of the deuterated tryptamines was studied in rats. In a typical experiment, run as a cassette dosing, two groups of 5 Wistar female rats (200-250 g) with surgically inserted jugular vein catheter (Charles River, Andover, MA) were fasted for 12 h and then administered 5 mg/kg of the deuterated and 5 mg/kg of the related non-deuterated analog, by oral gavage or via a catheter for each group. At time points 0, 15, 30, 60 min, and 2, 4, 8, and 24 h, the resulting plasma was analyzed for the parent molecule using LC/MS spectroscopy. Two separate groups of 5 animals were used for determining blood-to-plasma ratio (BPR). Each group was sacrificed at time points 15 and 30 min, respectively, and the concentration of the parent drug was determined in the brain and plasma by LC/MS spectroscopy.

For series [2], the target named is T1, hrMAO-A (Homo sapiens, UniProt P21397).
T1 construct: purchased XenoTech Lot #8213001
T1 sequence (P21397 1-527): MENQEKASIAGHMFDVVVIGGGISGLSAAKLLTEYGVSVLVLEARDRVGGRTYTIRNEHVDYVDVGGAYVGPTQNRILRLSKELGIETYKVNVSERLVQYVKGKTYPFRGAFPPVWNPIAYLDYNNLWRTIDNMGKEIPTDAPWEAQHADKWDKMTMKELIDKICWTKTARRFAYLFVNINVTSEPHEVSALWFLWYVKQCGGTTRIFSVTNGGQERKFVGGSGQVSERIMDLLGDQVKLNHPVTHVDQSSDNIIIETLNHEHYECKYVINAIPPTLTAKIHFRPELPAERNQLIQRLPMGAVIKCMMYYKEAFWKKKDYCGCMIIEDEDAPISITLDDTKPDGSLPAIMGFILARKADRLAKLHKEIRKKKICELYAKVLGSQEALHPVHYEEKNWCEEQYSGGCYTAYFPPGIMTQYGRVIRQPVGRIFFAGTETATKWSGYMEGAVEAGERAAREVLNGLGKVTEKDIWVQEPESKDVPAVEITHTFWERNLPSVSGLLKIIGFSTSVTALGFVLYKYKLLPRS
The series can be described thus: Metabolic stability in the presence of hrMAO-A. Format: in vitro ADME. Conditions: MAO-A; for MAO, % (half-life as % vs. the related nondeuterated compound): values in square brackets are within 10% difference (assay's accuracy), no deuteration effect. How it is done: The reaction mixture was prepared as described below. The co-dosed TAs were added into the reaction mixture at a final concentration of 1 microM each. The positive control, kynuramine (25 microM), was run simultaneously with the TAs in a separate reaction. The reaction mixture (without TAs or kynuramine) was equilibrated in a shaking water bath at 37° C. for 5 minutes. The reaction was initiated by the addition of the TAs or kynuramine, and the mixture was incubated in a shaking water bath at 37° C. Aliquots (100 microL) of the TA reaction mixture were withdrawn at 0, 5, 10, 20, 30, 60, and 120 minutes. Aliquots (100 microL) of the positive control reaction mixture were withdrawn at 0 and 30 minutes. TA and kynuramine samples were immediately combined with 100 microL of ice-cold 100% MeCN containing 0.1% formic acid and IS to terminate the reaction. The samples were then mixed and centrifuged to precipitate proteins. All TA samples were assayed by LC-HRAMS. The PARR (analyte to IS) at each time point was compared to the PARR at time 0 to determine the percent remaining at each time point. Reaction composition: hrMAO 0.02 mg/mL; Potassium Phosphate, pH 7.4 100 mM; Magnesium Chloride 5 mM; Test Articles (each) 1 microM.

The test system of series [3] is rat liver microsomes. Briefly: Metabolic stability in rat liver microsomes (RLM). Conditions: for RLM, % (half-life as % vs. the related nondeuterated compound): values in square brackets are within 10% difference (assay's accuracy), no deuteration effect. Background: Liver microsomes are vesicles of endoplasmic reticulum, rich in cytochrome P450 enzymes.
The nature of series [4]: PK study in rats, cassette dosing of deuterated and non-deuterated analog. Format: in vivo. Conditions: rat; 5 mg/kg; oral gavage or via catheter; % change vs. non-deuterated material. How it is done:
as §1

For series [5] the following is noted: oral, cited from earlier work.

Consider `[2H]C([2H])(Cc1c[nH]c2ccc(OC)cc12)N(C)C` [5-MeO-DMT-α,α-d2], for which, in series [1], the “Deuterium Kinetic Isotope Effect (% change), BPR, 15 min” value is 120% and the “Deuterium Kinetic Isotope Effect (% change), BPR, 30 min” value is recorded as 180%. The “MAO, % (half-life as % vs. the related nondeuterated compound)” value (“MAO, %” for short) in series [2] stood at 227%. In addition, the “RLM, % (half-life as % vs. the related nondeuterated compound)” value (“RLM, %” below) in series [3] (RLM) is 185%. For the same compound, in series [3] (rat liver microsomes, 0 to 60 min, disappearance of parent peak), the “collective kinetic deuterium isotope effect (reaction rate decrease for deuterated vs. non-deuterated molecule)” value is recorded as 150-200%. For the same compound, in series [4], the “Deuterium Kinetic Isotope Effect (% change), AUC” value is 60% and the “Deuterium Kinetic Isotope Effect (% change), T1/2” value was 30%.
In the case of `[2H]C([2H])(Cc1c[nH]c2cccc(O)c12)N(C)C` [PI-α,α-d2], in series [1], the “Deuterium Kinetic Isotope Effect (% change), BPR, 15 min” value was determined as 100% and the “Deuterium Kinetic Isotope Effect (% change), BPR, 30 min” value stood at 150%. Besides, in series [4], the “Deuterium Kinetic Isotope Effect (% change), AUC” value turned out to be 75% and the “Deuterium Kinetic Isotope Effect (% change), T1/2” value was found to be 50%.
As to `COc1cc(CCNCc2ccccc2OC)c(OC)cc1Cl` [2C—C—NBOMe, 2-(4-Chloro-2,5-dimethoxyphenyl)-N-[(2-methoxyphenyl)methyl]ethan-1-amine], the “very strong psychedelic doses” value in series [5] is 500 to 700 µg. The orally active dose in series [5] (doses as low as) was at least 25 µg.
Take `[2H]C([2H])(c1c[nH]c2ccc(OC)cc12)C([2H])([2H])N(C)CC`: in series [2], the “MAO, %” value was determined as 132%. Moreover, in series [3] (RLM), the “RLM, %” value is 115%.
Take `CCN(C)CCc1c[nH]c2ccc(OC)cc12` [reference compound]: in series [2] (last assay time point 120 min), the “MAO (metabolized or not)” value is recorded as “R”. The “RLM (metabolized or not)” value in series [3] (RLM, last assay time point 120 min) is listed as “R”.
`[2H]C([2H])(Cc1c[nH]c2ccc(O)cc12)N(C)C`: the “MAO, %” value in series [2] is reported as 415%. Moreover, in series [3] (RLM), the “RLM, %” value was determined as 133%.
As for `[2H]C([2H])([2H])NC([2H])([2H])C([2H])([2H])c1c[nH]c2ccccc12`, in series [2], the “MAO, %” value is listed as 711%. Also, in series [3] (RLM), the “RLM, %” value is listed as 214%.
In the case of `[2H]C([2H])([2H])Oc1ccc2[nH]cc(C([2H])([2H])C([2H])([2H])N(C([2H])([2H])[2H])C([2H])([2H])[2H])c2c1`, in series [2], the “MAO, %” value is reported as 372%. Further, the “RLM, %” value in series [3] (RLM) came to 299%.
Take `[2H]C([2H])(c1c[nH]c2ccc(O)cc12)C([2H])([2H])N(C)CC`: in series [2], the “MAO, %” value turned out to be 179%. In series [3] (RLM), the “RLM, %” value was found to be 144%.
